Laboratory results from US20230339981A1, “KRAS G12D MODULATING COMPOUNDS” (priority 2022, published 2023).

Assays:
[1] = system: GP2D (KRAS G12D) cells; assay: 2D cell viability assay (CellTiter-Glo); type: cell-based; settings: GP2d, 96 h, 4 days
In short: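 Viability was read by CellTiter-Glo after 4 days at 37 °C of 2D culture of KRAS G12D GP2D cells (1000/well, RPMI, 10% FBS) on pre-spotted threefold compound dilutions. EC50 was fitted with a sigmoidal dose-response model as the point of half-maximal luminescence loss.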

[2] = target: GDP-loaded KRAS G12D (Homo sapiens (Human), UniProt P01116, G12D); assay: KRAS G12D (GDP) biochemical assay (TR-FRET probe displacement); type: binding; settings: 2 hours
In short: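 TR-FRET probe displacement: 1:3 DMSO serial dilutions pre-incubated 30 min with GDP-bound KRAS G12D, followed by Eu-streptavidin/probe for 2 h at room temperature (Hepes pH 7.4, NaCl, MgCl2, Tween-20 buffer). IC50 defined as concentration halving TR-FRET ratio, from sigmoidal dose-response fit.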

GDP-loaded KRAS G12D, sequence (P01116-2 other isoform, or with tags, fused parts or gaps G12D): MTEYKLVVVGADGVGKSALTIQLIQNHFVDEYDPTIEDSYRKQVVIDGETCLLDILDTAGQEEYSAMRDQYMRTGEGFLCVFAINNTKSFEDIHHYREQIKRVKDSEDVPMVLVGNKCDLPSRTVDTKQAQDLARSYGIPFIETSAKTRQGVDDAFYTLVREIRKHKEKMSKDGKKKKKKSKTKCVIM

SMILES: C#Cc1c(F)ccc2cccc(-c3nc4c5c(nc(OC[C@@]67CCCN6[C@H](COc6cc(C(F)F)ncn6)CC7)nc5c3F)N3C[C@H]5CC[C@H](N5)[C@H]3CCC4)c12 [Example 205, (6aR,7S,10R)-13-(((3S,7aS)-3-(((6-(difluoromethyl)pyrimidin-4-yl)oxy)methyl)tetrahydro-1H-pyrrolizin-7a(5H)-yl)methoxy)-2-(8-ethynyl-7-fluoronaphthalen-1-yl)-1-fluoro-5,6,6a,7,8,9,10,11-octahydro-4H-3,11a,12,14,15-pentaaza-7,10-methanocyclohepta[4,5]cycloocta[1,2,3-de]naphthalene]
- EC50 [1]: 2.2 nM
- IC50 [2]: 0.06 nM

SMILES: C#Cc1c(F)ccc2cc(O)cc(-c3nc4c5c(nc(OC[C@@]67CCCN6C[C@H](F)C7)nc5c3F)N3C[C@H]5CC[C@H](N5)[C@H]3[C@@H](C)O4)c12 [Example 61, 5-ethynyl-6-fluoro-4-((5R,5aS,6S,9R)-1-fluoro-12-(((2R,7aS)-2-fluorotetrahydro-1H-pyrrolizin-7a(5H)-yl)methoxy)-5-methyl-5a,6,7,8,9,10-hexahydro-5H-4-oxa-3,10a,11,13,14-pentaaza-6,9-methanonaphtho[1,8-ab]heptalen-2-yl)naphthalen-2-ol]
- EC50 [1]: 520 nM
- IC50 [2]: 26 nM

SMILES: C#Cc1c(F)ccc2cc(O)cc(-c3nc4c5c(nc(OC[C@@]67CCCN6C[C@H](F)C7)nc5c3F)N3C[C@H]5CC[C@H](N5)[C@H]3[C@H](C)O4)c12 [Example 53, 5-ethynyl-6-fluoro-4-((5S,5aS,6S,9R)-1-fluoro-12-(((2R,7aS)-2-fluorotetrahydro-1H-pyrrolizin-7a(5H)-yl)methoxy)-5-methyl-5a,6,7,8,9,10-hexahydro-5H-4-oxa-3,10a,11,13,14-pentaaza-6,9-methanonaphtho[1,8-ab]heptalen-2-yl)naphthalen-2-ol]
- EC50 [1]: 2 nM
- IC50 [2]: 0.1 nM

SMILES: C#Cc1c(F)ccc2cccc(-c3nc4c5c(nc(OC[C@@]67CCCN6[C@H](COc6nccnc6C(F)F)CC7)nc5c3F)N3C[C@H]5CC[C@H](N5)[C@H]3CCC4)c12 [Example 207, (6aR,7S,10R)-13-(((3S,7aS)-3-(((3-(difluoromethyl)pyrazin-2-yl)oxy)methyl)tetrahydro-1H-pyrrolizin-7a(5H)-yl)methoxy)-2-(8-ethynyl-7-fluoronaphthalen-1-yl)-1-fluoro-5,6,6a,7,8,9,10,11-octahydro-4H-3,11a,12,14,15-pentaaza-7,10-methanocyclohepta[4,5]cycloocta[1,2,3-de]naphthalene]
- EC50 [1]: 1 nM
- IC50 [2]: 0.06 nM

SMILES: C#Cc1c(F)ccc2cccc(-c3nc4c5c(nc(OC[C@@]67CCCN6[C@H](COc6cc(C(F)(F)F)ncn6)CC7)nc5c3F)N3C[C@H]5CC[C@H](N5)[C@H]3CC[C@H]4C)c12 [Example 203, (4R,6aR,7S,10R)-2-(8-ethynyl-7-fluoronaphthalen-1-yl)-1-fluoro-4-methyl-13-(((3S,7aS)-3-(((6-(trifluoromethyl)pyrimidin-4-yl)oxy)methyl)tetrahydro-1H-pyrrolizin-7a(5H)-yl)methoxy)-5,6,6a,7,8,9,10,11-octahydro-4H-3,11a,12,14,15-pentaaza-7,10-methanocyclohepta[4,5]cycloocta[1,2,3-de]naphthalene]
- EC50 [1]: 1.2 nM
- IC50 [2]: 0.12 nM

SMILES: Oc1cc(-c2nc3c4c(nc(OC[C@@]56CCCN5C[C@H](F)C6)nc4c2F)N2C[C@H]4CC[C@H](N4)[C@@H]2CO3)c2ccccc2c1 [Example 19, 4-((5aR,6S,9R)-1-fluoro-12-(((2R,7aS)-2-fluorotetrahydro-1H-pyrrolizin-7a(5H)-yl)methoxy)-5a,6,7,8,9,10-hexahydro-5H-4-oxa-3,10a,11,13,14-pentaaza-6,9-methanonaphtho[1,8-ab]heptalen-2-yl)naphthalen-2-ol]
- EC50 [1]: 3300 nM
- IC50 [2]: 590 nM

SMILES: C#Cc1c(F)ccc2cc(O)cc(-c3nc4c5c(nc(OC[C@@]67CCCN6C[C@H](F)C7)nc5c3F)N3C[C@H]5CC[C@H](N5)[C@@H]3[C@@H](C)C4)c12 [Example 64, 5-ethynyl-6-fluoro-4-((5S,5aS,6S,9R)-1-fluoro-12-(((2R,7aS)-2-fluorotetrahydro-1H-pyrrolizin-7a(5H)-yl)methoxy)-5-methyl-4,5,5a,6,7,8,9,10-octahydro-3,10a,11,13,14-pentaaza-6,9-methanonaphtho[1,8-ab]heptalen-2-yl)naphthalen-2-ol]
- EC50 [1]: 0.3 nM
- IC50 [2]: 0.1 nM

SMILES: C#Cc1c(F)ccc2cccc(-c3nc4c5c(nc(OCC6(CN7CCC8(CC7)CC8(F)F)CC6)nc5c3F)N3C[C@H]5CC[C@H](N5)[C@@H]3[C@@H](C)C4)c12 [Example 136, (5S,5aS,6S,9R)-12-((1-((1,1-difluoro-6-azaspiro[2.5]octan-6-yl)methyl)cyclopropyl)methoxy)-2-(8-ethynyl-7-fluoronaphthalen-1-yl)-1-fluoro-5-methyl-4,5,5a,6,7,8,9,10-octahydro-3,10a,11,13,14-pentaaza-6,9-methanonaphtho[1,8-ab]heptalene]
- EC50 [1]: 100 nM
- IC50 [2]: 17.1 nM

SMILES: C#Cc1c(F)ccc2cc(O)cc(-c3nc4c5c(nc(OC[C@@]67CCCN6C[C@H](F)C7)nc5c3F)N3C[C@H]5CC[C@H](N5)[C@H]3[C@H](C3CC3)O4)c12 [Example 71, 4-((5S,5aS,6S,9R)-5-cyclopropyl-1-fluoro-12-(((2R,7aS)-2-fluorotetrahydro-1H-pyrrolizin-7a(5H)-yl)methoxy)-5a,6,7,8,9,10-hexahydro-5H-4-oxa-3,10a,11,13,14-pentaaza-6,9-methanonaphtho[1,8-ab]heptalen-2-yl)-5-ethynyl-6-fluoronaphthalen-2-ol]
- EC50 [1]: 81 nM
- IC50 [2]: 4 nM

SMILES: C#Cc1c(F)ccc2cc(O)cc(-c3nc4c5c(nc(OCC6(CN7CCC[C@@H](F)C7)CC6)nc5c3F)N3C[C@H]5CC[C@H](N5)[C@H]3CC4)c12 [Example 67]
- EC50 [1]: 1 nM
- IC50 [2]: 0.08 nM

SMILES: C#Cc1c(F)ccc2cc(O)cc(-c3nc4c5c(nc(OC[C@@]67CCCN6C[C@H](F)C7)nc5c3F)N3C[C@H]5CC[C@H](N5)[C@H]3[C@@H](C(F)F)O4)c12 [Example 82, 4-((5S,5aS,6S,9R)-5-(difluoromethyl)-1-fluoro-12-(((2R,7aS)-2-fluorotetrahydro-1H-pyrrolizin-7a(5H)-yl)methoxy)-5a,6,7,8,9,10-hexahydro-5H-4-oxa-3,10a,11,13,14-pentaaza-6,9-methanonaphtho[1,8-ab]heptalen-2-yl)-5-ethynyl-6-fluoronaphthalen-2-ol]
- EC50 [1]: 104 nM
- IC50 [2]: 11.4 nM

SMILES: C#Cc1c(F)ccc2cc(O)cc(-c3nc4c5c(nc(OC[C@@]67CCCN6[C@H](COCC(F)(F)F)CC7)nc5c3F)N3C[C@H]5CC[C@H](N5)[C@H]3CC4)c12 [Example 163, 5-ethynyl-6-fluoro-4-((5aR,6S,9R)-1-fluoro-12-(((3S,7aS)-3-((2,2,2-trifluoroethoxy)methyl)tetrahydro-1H-pyrrolizin-7a(5H)-yl)methoxy)-4,5,5a,6,7,8,9,10-octahydro-3,10a,11,13,14-pentaaza-6,9-methanonaphtho[1,8-ab]heptalen-2-yl)naphthalen-2-ol]
- EC50 [1]: 5.1 nM
- IC50 [2]: 0.1 nM

SMILES: C#Cc1c(F)ccc2cc(N)cc(-c3cc4c5c(nc(OC[C@@]67CCCN6C[C@H](F)C7)nc5c3F)N3C[C@H]5CC[C@H](N5)[C@@H]3[C@@H](C)C4)c12 [Example 193, 5-ethynyl-6-fluoro-4-((1S,4R,14S,14aS)-10-fluoro-8-(((2R,7aS)-2-fluorotetrahydro-1H-pyrrolizin-7a(5H)-yl)methoxy)-14-methyl-1,2,3,4,5,13,14,14a-octahydro-1,4-epiminoazepino[1′,2′:1,7]azepino[2,3,4-de]quinazolin-11-yl)naphthalen-2-amine]
- EC50 [1]: 4.9 nM
- IC50 [2]: 0.05 nM

SMILES: Oc1cc(-c2nc3c4c(nc(OC[C@@]56CCCN5C[C@H](F)C6)nc4c2F)N2C[C@H]4CC[C@H](N4)[C@H]2CO3)c2c(SC(F)(F)F)c(F)ccc2c1 [Example 54, 6-fluoro-4-((5aS,6S,9R)-1-fluoro-12-(((2R,7aS)-2-fluorotetrahydro-1H-pyrrolizin-7a(5H)-yl)methoxy)-5a,6,7,8,9,10-hexahydro-5H-4-oxa-3,10a,11,13,14-pentaaza-6,9-methanonaphtho[1,8-ab]heptalen-2-yl)-5-((trifluoromethyl)thio)naphthalen-2-ol]
- EC50 [1]: 42 nM
- IC50 [2]: 3 nM

SMILES: C#Cc1c(F)ccc2cccc(-c3nc4c5c(nc(OC[C@@]67CCCN6[C@H](COc6cnc(C(F)F)cn6)CC7)nc5c3F)N3C[C@H]5CC[C@H](N5)[C@H]3CCC4)c12 [Example 200, (6aR,7S,10R)-13-(((3S,7aS)-3-(((5-(difluoromethyl)pyrazin-2-yl)oxy)methyl)tetrahydro-1H-pyrrolizin-7a(5H)-yl)methoxy)-2-(8-ethynyl-7-fluoronaphthalen-1-yl)-1-fluoro-5,6,6a,7,8,9,10,11-octahydro-4H-3,11a,12,14,15-pentaaza-7,10-methanocyclohepta[4,5]cycloocta[1,2,3-de]naphthalene]
- EC50 [1]: 2.9 nM
- IC50 [2]: 0.05 nM

SMILES: C#Cc1c(F)ccc2cc(O)cc(-c3nc4c5c(nc(OCC6(CN7CC[C@H](C(F)(F)F)C7)CC6)nc5c3F)N3C[C@H]5CC[C@H](N5)[C@H]3CO4)c12 [Example 44, 5-ethynyl-6-fluoro-4-((5aS,6S,9R)-1-fluoro-12-((1-(((S)-3-(trifluoromethyl)pyrrolidin-1-yl)methyl)cyclopropyl)methoxy)-5a,6,7,8,9,10-hexahydro-5H-4-oxa-3,10a,11,13,14-pentaaza-6,9-methanonaphtho[1,8-ab]heptalen-2-yl)naphthalen-2-ol]
- EC50 [1]: 7 nM
- IC50 [2]: 2 nM
